Laboratory results published in ChEMBL document CHEMBL1145154 (J Med Chem, 2005).
pIC50: −log10 of the molar value. The source made the active and inactive calls. No cut-off for these calls is given here.

How the values were obtained:
A2780 = experiment: In vitro cytotoxicity for human ovarian tumor A2780 cells; assay type: functional, cell-based
Salmon testes DNA [1] = experiment: Binding affinity towards salmon testes DNA; assay type: nucleic-acid assay; details: Oncorhynchus gorbuscha
Salmon testes DNA [2] = experiment: Binding affinity towards salmon testes DNA; NA=not applicable; assay type: nucleic-acid assay; details: Oncorhynchus gorbuscha

## c1ccc2c(c1)C1=NCCN1c1ccccc1-2
A2780; Homo sapiens, A2780
  pIC50: 5.81
Salmon testes DNA [1]
  K: 25600 M⁻¹

## OCC[N+]1=C2c3ccccc3-c3ccccc3N2CC1
A2780; Homo sapiens, A2780
  pIC50: 4.93
Salmon testes DNA [1]
  K: 20200 M⁻¹

## CARBOPLATIN [listing 1 of 2 here]
Salmon testes DNA [2]
  K: inactive

## CCCCCCCCCCCC[N+]1=C2c3ccccc3-c3ccccc3N2CC1
A2780; Homo sapiens, A2780
  pIC50: 7.06
Salmon testes DNA [1]
  K: 129000 M⁻¹

## COc1ccc2c(c[n+](C)c3c4cc5c(cc4ccc23)OCO5)c1OC [CHELERYTHRINE CHLORIDE]
A2780; Homo sapiens, A2780
  pIC50: 5.33
Salmon testes DNA [1]
  K: 466000 M⁻¹

## CARBOPLATIN [listing 2 of 2 here]
A2780; a2780
  pIC50: 5.28

## COc1ccc(C[N+]2=C3c4ccccc4-c4ccccc4N3CC2)cc1
A2780; Homo sapiens, A2780
  pIC50: 5.82
Salmon testes DNA [1]
  K: 28900 M⁻¹
